We go through two compounds from US10759787B2, “Benzofuran derivative, preparation method thereof and use thereof in medicine” (Jiangsu Hengrui Medicine Co., Ltd., priority 2015, dated 2020).

One data set addresses EZH2-A677G (Homo sapiens (Human), UniProt Q15910, A677G). The data set is described as follows: EZH2-A677G mutant enzyme activity assay (HTRF). It is filed as biochemical. The conditions noted are these: read-out: IC50 for inhibiting the activity of enzyme EZH2-A677G. The protocol:
(§1) Histone H3 biotin labeling and S-adenosyl methionine were respectively diluted to 50 nM and 50 μM with a kinase buffer, then added to a 384-well plate at 4 μl/well. The test compound was diluted with a kinase buffer (it was diluted from the highest concentration 30 μM in 10 fold concentration gradient to 7 concentration points), then added to the 384-well microtiter plate at 4 μl/well. The plate was incubated at room temperature for 2 hours. Histone H3K27 Me3 monoclonal antibody and Streptavidin-XL665 were diluted to 30 nM and 500 nM by HTRF detection buffer, then added to the 384-well microplate at 10 µl/well and incubated for 1 hour. A well without an EZH2 enzyme and a compound was used as a negative control, and a well with an EZH2 enzyme but without a compound was used as a positive control. […] The compound logarithm concentration vs the inhibition percentage relative to the positive control well was plotted using GraphPad Prism, then the IC50 values were calculated.
(TR-FRET usually uses a lanthanide donor and a delayed reading to cut background.)

Another data set concerns the target EZH2-Y641F (Homo sapiens (Human), UniProt Q15910, Y641F). Kind of data set: EZH2-Y641F mutant enzyme activity assay (HTRF). The format is biochemical. To be noted: read-out: IC50 for inhibiting the activity of enzyme EZH2-Y641F. As to the method: as §1
Another data set deals with Pfeiffer cells. Kind of data set: In vitro anti-tumor cell growth assay (CellTiter-Glo), Pfeiffer. The format is cell-based. To be noted: Homo sapiens, 120 h; Pfeiffer cells (A677G mutant), 5 days; read-out: IC50 for inhibiting the growth activity of tumor cells (Pfeiffer) in vitro. The protocol: (§2) Test Example 2. Assay for Determining In Vitro Anti-Tumor Cell Growth Activity of the Example Compounds of the Present Invention
(§3) This method was used to determinate the inhibitory effect of the compounds of the present invention on the growth activity of tumor cells (Pfeiffer or WSU-DLCL2) in vitro. Pfeiffer cells carry A677G mutant, and WSU-DLCL2 cells carry Y641F mutant.
(§4) The lymphoma suspension cell line (Pfeiffer or WSU-DLCL2) was cultured in a RPMI-1640 medium containing 10% inactivated Fetal Bovine Serum, 100 U/mL penicillin, and 100 μg/mL streptomycin, and incubated in an incubator with 5% carbon dioxide at 37° C. under a saturated humidity condition, and passaged every 3-4 days.
(§5) A cell sudpension was prepared with a fresh cell medium, added to a 96-well cell culture plate at 8000 cells/well (Pfeiffer) or 2000 cells/well (WSU-DLCL2), and incubated in 5% carbon dioxide at 37° C. incubator overnight. On the day of the experiment, the EZH2 test compounds (final concentration: 20000, 2000, 200, 20, 2, 0.2 nM) were added into the experimental wells for 3 parallel wells per group. A control well with the medium alone but without cells was set up to obtain the background luminescent value. The cell culture plate was incubated in an incubator with 5% carbon dioxide at 37° C. for 5 days.
(§6) After the compounds were applied to the cells for 5 days, the cell culture plate was placed at room temperature for 30 minutes, then a CellTiter-Glo reagent equal to the volume of cell culture medium was added to each well. The contents were mixed on a shaker for 10 minutes, and the […] signal values were recorded. The cell growth inhibition rate was calculated, and the formula was: cell growth inhibiton rate=[(negative control control−experimental group)/(negative control group−background luminescent value)]×100%. The IC50 values (half inhibition rate IC50, i.e., a drug concentration that is required for 50% cell growth inhibition rate) were calculated by software from the cell growth inhibiton rate and the corresponding concentration.

For the next data set, the system named is WSU-DLCL2 cells. Kind of data set: In vitro anti-tumor cell growth assay (CellTiter-Glo), WSU-DLCL2. It is filed as cell-based. The conditions noted are these: Homo sapiens, WSUDLCL2, 120 h; WSU-DLCL2 cells (Y641F mutant), 5 days; read-out: IC50 for inhibiting the growth activity of tumor cells (WSU-DLCL2) in vitro. The protocol: as §2, §3, §4, §5, §6
On the technique in general: Cellular ATP, detected with luciferase, serves as a proxy for viable cell number.

A short description of data set [1]: Pharmacokinetics assay in SD rats after intragastrical administration. The format is in vivo. To be noted: both sexes, Sprague-Dawley, rat, plasma, po, 5 mg/kg. As to the method: Test Example 3. Pharmacokinetics Assay of the Compounds of Examples 1, 2, 3 and 9 of the Present Invention
SD rats were used as test animals. The drug concentration in plasma at different time points was determined by LC/MS/MS after intragastrical administration of the compounds of Examples 1, 2, 3 and 9 to the rats. The pharmacokinetic behavior of the compounds of the present invention was studied and evaluated in rats.
16 healthy adult Sprague-Dawley (SD) rats, half male and half female, were purchased from SINO-BRITSH SIPPR/BK LAB. ANIMAL LTD., CO, with Certificate No.: SCXK (Shanghai) 2008-0016.
The appropriate amount of each compound was weighed, and added with 0.5% CMC-Na (containing 1% Tween 80) to prepare a 1.0 mg/mL suspension by grinding.
After an overnight fast, 16 SD rats were divided into 4 groups equally, half male and half female, and administered intragastrically the test compounds at an administration volume of 5 mL/kg.
Blood (0.2 mL) was taken from the orbital sinus before administration and at 0.5, 1.0, 2.0, 4.0, 6.0, 8.0, 11.0, and 24.0 hours after administration. The samples were stored in heparinized tubes, and centrifuged for 10 minutes at 3,500 rpm to separate the blood plasma. The plasma samples were stored at −20° C.
The plasma concentration of the test compounds in rat plasma after intragastric administration was determined by LC-MS/MS.
Pharmacokinetic parameters of the compounds of Examples 1, 2, 3 and 9 of the present invention are shown below: […]

Each structure is given as a SMILES string.

Chain of EZH2-Y641F (Q15910 whole entry Y641F): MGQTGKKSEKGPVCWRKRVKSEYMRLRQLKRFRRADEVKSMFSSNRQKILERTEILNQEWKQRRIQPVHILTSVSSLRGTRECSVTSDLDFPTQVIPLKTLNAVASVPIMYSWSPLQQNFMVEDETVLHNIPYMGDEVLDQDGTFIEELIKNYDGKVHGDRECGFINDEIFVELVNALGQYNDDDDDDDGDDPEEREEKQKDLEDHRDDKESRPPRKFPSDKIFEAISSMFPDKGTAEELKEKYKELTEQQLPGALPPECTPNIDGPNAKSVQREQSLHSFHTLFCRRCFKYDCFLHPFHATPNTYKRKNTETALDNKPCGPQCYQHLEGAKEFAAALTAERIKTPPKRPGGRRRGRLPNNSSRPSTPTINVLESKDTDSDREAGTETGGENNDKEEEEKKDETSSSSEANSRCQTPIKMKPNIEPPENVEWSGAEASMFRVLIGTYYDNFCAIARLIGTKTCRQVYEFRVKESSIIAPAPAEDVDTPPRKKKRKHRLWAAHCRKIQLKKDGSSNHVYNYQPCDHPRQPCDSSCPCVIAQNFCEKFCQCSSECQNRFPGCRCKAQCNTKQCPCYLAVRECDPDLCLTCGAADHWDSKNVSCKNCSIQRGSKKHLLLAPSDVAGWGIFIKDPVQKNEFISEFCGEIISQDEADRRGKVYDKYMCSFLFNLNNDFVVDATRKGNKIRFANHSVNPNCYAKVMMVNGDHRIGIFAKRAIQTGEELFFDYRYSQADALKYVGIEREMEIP
Chain of EZH2-Y641F (O75530 whole entry partner): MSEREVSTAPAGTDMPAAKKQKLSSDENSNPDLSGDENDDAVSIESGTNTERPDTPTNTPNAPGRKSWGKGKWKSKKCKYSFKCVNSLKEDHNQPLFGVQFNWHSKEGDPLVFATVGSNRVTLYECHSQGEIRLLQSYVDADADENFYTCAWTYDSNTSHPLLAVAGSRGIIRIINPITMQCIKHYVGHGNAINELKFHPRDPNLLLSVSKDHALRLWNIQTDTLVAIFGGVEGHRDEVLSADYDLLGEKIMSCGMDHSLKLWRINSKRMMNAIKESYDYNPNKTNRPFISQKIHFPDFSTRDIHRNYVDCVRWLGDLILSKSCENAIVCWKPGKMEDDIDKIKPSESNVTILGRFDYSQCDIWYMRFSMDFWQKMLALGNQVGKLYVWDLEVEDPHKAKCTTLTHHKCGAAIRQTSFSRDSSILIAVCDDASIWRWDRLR
Chain of EZH2-Y641F (Q15022 whole entry partner): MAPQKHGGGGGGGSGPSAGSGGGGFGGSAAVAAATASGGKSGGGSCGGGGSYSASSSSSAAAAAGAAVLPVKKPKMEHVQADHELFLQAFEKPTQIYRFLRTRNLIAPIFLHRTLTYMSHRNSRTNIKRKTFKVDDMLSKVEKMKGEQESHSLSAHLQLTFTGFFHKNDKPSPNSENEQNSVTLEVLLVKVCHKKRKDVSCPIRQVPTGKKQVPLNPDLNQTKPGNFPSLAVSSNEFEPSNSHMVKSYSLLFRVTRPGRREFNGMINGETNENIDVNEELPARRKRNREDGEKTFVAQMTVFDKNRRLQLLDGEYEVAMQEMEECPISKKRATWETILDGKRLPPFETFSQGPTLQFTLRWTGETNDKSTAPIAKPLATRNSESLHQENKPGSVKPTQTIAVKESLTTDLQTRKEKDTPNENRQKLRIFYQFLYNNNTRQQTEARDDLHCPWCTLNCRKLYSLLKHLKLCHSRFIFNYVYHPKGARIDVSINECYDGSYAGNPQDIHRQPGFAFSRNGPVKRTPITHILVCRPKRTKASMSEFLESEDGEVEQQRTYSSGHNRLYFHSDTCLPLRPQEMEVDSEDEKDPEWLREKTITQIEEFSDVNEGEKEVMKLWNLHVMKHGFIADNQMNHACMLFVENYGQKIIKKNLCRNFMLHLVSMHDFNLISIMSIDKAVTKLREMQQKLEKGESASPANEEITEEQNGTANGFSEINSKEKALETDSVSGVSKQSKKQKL
Chain of EZH2-Y641F (Q09028 whole entry partner): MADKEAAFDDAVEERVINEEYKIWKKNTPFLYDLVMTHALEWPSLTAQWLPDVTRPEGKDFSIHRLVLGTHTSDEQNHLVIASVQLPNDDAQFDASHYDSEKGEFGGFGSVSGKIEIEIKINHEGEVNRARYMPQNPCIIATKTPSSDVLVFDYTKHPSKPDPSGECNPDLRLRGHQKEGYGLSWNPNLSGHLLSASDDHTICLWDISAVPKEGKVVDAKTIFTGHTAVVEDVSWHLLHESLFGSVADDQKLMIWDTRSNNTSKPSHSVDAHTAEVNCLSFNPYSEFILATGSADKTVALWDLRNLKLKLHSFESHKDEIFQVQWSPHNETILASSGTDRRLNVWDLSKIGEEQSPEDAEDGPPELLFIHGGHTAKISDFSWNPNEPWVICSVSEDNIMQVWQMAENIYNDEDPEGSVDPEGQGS
Chain of EZH2-Y641F (Q6ZN18 whole entry partner): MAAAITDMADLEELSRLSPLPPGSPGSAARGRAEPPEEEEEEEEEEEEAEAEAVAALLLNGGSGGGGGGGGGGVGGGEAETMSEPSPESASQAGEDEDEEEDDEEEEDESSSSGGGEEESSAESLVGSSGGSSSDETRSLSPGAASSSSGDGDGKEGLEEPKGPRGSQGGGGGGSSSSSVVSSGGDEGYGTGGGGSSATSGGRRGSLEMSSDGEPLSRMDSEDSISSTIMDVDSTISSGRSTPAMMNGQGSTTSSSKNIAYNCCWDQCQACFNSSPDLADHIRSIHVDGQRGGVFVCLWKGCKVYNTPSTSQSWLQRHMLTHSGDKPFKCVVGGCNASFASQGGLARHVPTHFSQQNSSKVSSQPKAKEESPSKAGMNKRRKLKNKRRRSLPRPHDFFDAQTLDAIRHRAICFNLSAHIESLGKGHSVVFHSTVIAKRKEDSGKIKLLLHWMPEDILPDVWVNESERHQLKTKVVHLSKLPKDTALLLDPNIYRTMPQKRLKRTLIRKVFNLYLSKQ
Chain of EZH2-A677G (Q15910 whole entry A677G): as the sequence (Q15910 whole entry Y641F) above, with F641Y, A677G counted along it
Chain of EZH2-A677G (O75530 whole entry partner): as the sequence (O75530 whole entry partner) above
Chain of EZH2-A677G (Q15022 whole entry partner): as the sequence (Q15022 whole entry partner) above
Chain of EZH2-A677G (Q09028 whole entry partner): as the sequence (Q09028 whole entry partner) above
Chain of EZH2-A677G (Q6ZN18 whole entry partner): as the sequence (Q6ZN18 whole entry partner) above

For the compound `CCN(c1cc2oc(C)cc2c(C(=O)NCc2c(OC)cc(C)[nH]c2=O)c1C)C1CCOCC1` [Example 19, 6-(Ethyl(tetrahydro-2H-pyran-4-yl)amino)-N-((4-methoxy-6-methyl-2-oxo-1,2-dihydropyridin-3-yl)methyl)-2,5-dimethylbenzofuran-4-carboxamide], the IC50 on EZH2-A677G is 2.9 nM; on EZH2-Y641F, 2.8 nM; in the data set with Pfeiffer cells it was 14 nM; in the data set with WSU-DLCL2 cells, 232 nM.

As for `CCc1c(N(CC)C2CCOCC2)cc2oc(C3CCN(C(C)C)CC3)cc2c1C(=O)NCc1c(C)cc(C)[nH]c1=O` [Example 9, N-((4,6-Dimethyl-2-oxo-1,2-dihydropyridin-3-yl)methyl)-5-ethyl-6-(ethyl(tetrahydro-2H-pyran-4-yl)amino)-2-(1-isopropylpiperidin-4-yl)benzofuran-4-carboxamide], the 50% inhibitory concentration (IC50) on EZH2-A677G amounted to 5.7 nM; on EZH2-Y641F, 4 nM; in the data set on Pfeiffer cells, 7 nM; with WSU-DLCL2 cells, 55 nM. Moreover, in data set [1] (read-out: Apparent Distribution Volume Vz/F), the Vd/F is 35.1 ± 37.1 L/kg. For the same compound, the AUC in data set [1] (read-out: Area Under Curve AUC) came out at 274 ± 180 ng·h/mL. Besides, the CL/F in data set [1] (read-out: Clearance CL/F) is 562 ± 592 mL/min/kg. Besides, the half-life in data set [1] (read-out: Half-Life t1/2 (converted)) is 0.719 ± 0.15 h. Also, in data set [1] (read-out: Mean Residence Time MRT), the MRT was determined as 3.48 ± 0.107 h. The highest concentration (Cmax) in data set [1] (read-out: Plasma Conc. Cmax) was 79.1 ± 50.7 ng/mL.

As usually defined, the IC50 is the midpoint of a concentration-inhibition curve. The term AUC denotes concentration integrated over time. By MRT is commonly meant the average time that molecules of a dose stay in the body. The term Cmax denotes the peak of the concentration-time curve.
